In ChEMBL document CHEMBL3507680, “University of Dundee, Gates Library screen for HepG2 cell viability”:

Assay: Human HepG2 cell viability assay in 384 well format
Assay type: toxicity, cell-based
Set-up: dose 125 nL, time 70.5 hour; cytotoxicity at 70.5 h: concentration not given beside the values
Conditions: HepG2 cells, read-out: Inhibition

First: c1cnc(NCc2n[nH]c3c2CCN(Cc2cccnc2)C3)nc1
Second: COCc1nn(C(C)C)c2c1CCN(Cc1ccccn1)C2
The cytotoxicity at 70.5 h of the first is lower: -12.3% for the first, -3.77% for the second.

First: CCN1CC2(CC1=O)CN(C(=O)N(C)C)CCN(S(C)(=O)=O)C2 (stereo not drawn)
Second: CCN1CC2(CC1=O)CN(C(=O)COC)CCN(S(C)(=O)=O)C2 (stereo not drawn)
The cytotoxicity at 70.5 h of the first is higher: -10.5% for the first, -11% for the second.

First: O[C@H]1CCN(CC2CCOC2)[C@H]1Cc1ccncc1 (stereo partly drawn)
Second: COCCN1C[C@@H]2[C@@H](OC)CCN(Cc3ccncc3)[C@@H]2C1
The cytotoxicity at 70.5 h of the first is lower: -11.6% for the first, -0.354% for the second.

Going from `CC(C)Nc1nc2c(c(NC3CC3)n1)CN(C(=O)c1ccnnc1)CC2` to `CC(=O)NCC(=O)N1CCc2nc(-c3ccccc3)nc(C)c2CC1`, the cytotoxicity at 70.5 h falls from 32.6% to -5.16%.

Compared with `O=C(C1CCSCC1)N1CC[C@H]2OCC[C@@]2(COCC2CC2)C1`, `CN(C)CC(=O)N1CC[C@H]2OCC[C@@]2(COCC2CC2)C1` is lower in cytotoxicity at 70.5 h: -6.06% for the first, -11.9% for the second.

Compared with `COc1cccc(-c2cnc3n2CCC32CCN(C(C)=O)CC2)c1`, `Cc1cccc(C(=O)N2CCC3(CCN(c4cnn(C)c4)C3=O)C2)n1` (stereo not drawn) is higher in cytotoxicity at 70.5 h: -3.5% for the first, -1.73% for the second.

Compared with `COCC1CN(C(=O)[C@H]2CCCO2)Cc2nnn(CC3CC3)c21` (stereo partly drawn), `Cn1nnc2c1C(COCC1CC1)CN(C(=O)[C@H]1CCCO1)C2` (stereo partly drawn) is higher in cytotoxicity at 70.5 h: -5.8% for the first, 0% for the second.

Going from `Cc1nc(COCc2nc3c(o2)CN(C(=O)c2ccoc2)C3)cs1` to `CC(=O)NCC(=O)N1Cc2nc(COCc3csc(C)n3)oc2C1`, the cytotoxicity at 70.5 h falls from -7.05% to -8.19%.

Compared with `CC(C)N1CCC(c2ccnc3c(C(=O)N4CCOCC4)ncn23)CC1`, `Cn1nc(C(=O)N2CCCC2)c2c1CN(CC1CCOCC1)C2` is higher in cytotoxicity at 70.5 h: -5.36% for the first, 4.3% for the second.

First: CN(C)C(=O)N1CC2(CCOCC2)c2cc(NC(=O)CCO)ccc21
Second: Cc1ccc(C(=O)N2CCC3(CC2)COCCN(S(C)(=O)=O)C3)cc1C
The cytotoxicity at 70.5 h of the first is higher: -0.169% for the first, -6.37% for the second.

First: CCOCC1CN(C(=O)N(C)C)Cc2nnn(CC3CC3)c21 (stereo not drawn)
Second: CN1Cc2cnn(CC3CCCC3)c2C(COCC2CC2)C1 (stereo not drawn)
The cytotoxicity at 70.5 h of the first is higher: 4.98% for the first, -1.16% for the second.

Compared with `CS(=O)(=O)N1Cc2nc(C(=O)NCc3ccccc3)oc2C1`, `COc1cccc(CNC(=O)c2nc3c(o2)CN(S(C)(=O)=O)C3)c1` is lower in cytotoxicity at 70.5 h: -5.1% for the first, -6.24% for the second.

Going from `O=C(C1CCOCC1)N1C[C@@H]2OCCN(CCN3CCCC3)[C@@H]2C1` to `CN(C)CCN1CCO[C@H]2CN(C(=O)C3CCOCC3)C[C@H]21`, the cytotoxicity at 70.5 h falls from -3.55% to -4.53%.

First: C[C@@H]1C[C@H]2CN(C(=O)c3cccc4c3OCCO4)C[C@H]2O1
Second: O=C(c1cnccn1)N1C[C@@H]2C[C@@H](c3nc(C4CC4)cs3)O[C@@H]2C1
The cytotoxicity at 70.5 h of the first is lower: -8.32% for the first, -1.34% for the second.

First: CCS(=O)(=O)N1C[C@@H](c2nnc(C)o2)C[C@H]2OCC[C@H]21
Second: CCS(=O)(=O)N1C[C@H](c2nc(C)no2)C[C@H]2OCC[C@H]21
The cytotoxicity at 70.5 h of the first is lower: -9.81% for the first, 5.21% for the second.

Going from `O=C(C1CCC1)N1CCC2(CC1)CNCCO2` to `CS(=O)(=O)N1CCOCC2(CCN(C(=O)c3ccco3)CC2)C1`, the cytotoxicity at 70.5 h falls from 4.67% to -8.61%.

Going from `CCN(CC)c1ccc2ccc(C(=O)N(C)C)cn12` to `O=C(O)CCC(=O)Nc1nn(Cc2ccc(F)cc2)cc1Cl`, the cytotoxicity at 70.5 h rises from 8.29% to 27.9%.

Compared with `CCOCC(=O)N1CCCn2c(nnc2Cn2cccc2)C1`, `CC(C)N(C)Cc1cnc2n1CCN(C(=O)Cc1ccsc1)C2` is higher in cytotoxicity at 70.5 h: 3.11% for the first, 3.66% for the second.

First: CC(=O)N1CCC2(C1)c1ccccc1S(=O)(=O)N2Cc1ccccc1 (stereo not drawn)
Second: COCCN1C2(CCN(CC3CC3)C2)c2ccccc2S1(=O)=O (stereo not drawn)
The cytotoxicity at 70.5 h of the first is lower: 3.49% for the first, 4.8% for the second.

Compared with `Cc1noc([C@H]2C[C@H]3OCC[C@H]3N(S(C)(=O)=O)C2)n1`, `Cc1csc(CN2CC[C@H]3C[C@@H](c4nc(C)no4)O[C@@H]3C2)n1` is lower in cytotoxicity at 70.5 h: 3.17% for the first, -7.69% for the second.

Compared with `CCOCC1CN(Cc2ccc3c(c2)OCO3)Cc2nccn2C1` (stereo not drawn), `N#Cc1cccc(CN2Cc3nccn3CC(CN3CCCC3)C2)c1` (stereo not drawn) is lower in cytotoxicity at 70.5 h: 0.869% for the first, 0.61% for the second.

Going from `COc1cc(N2C[C@H]3OCC[C@H]3[C@H](C(=O)N3CCCC3)C2)ncn1` to `COCCNC(=O)[C@@H]1CN(c2cc(OC)ncn2)C[C@H]2OCC[C@H]21`, the cytotoxicity at 70.5 h falls from 27.7% to -7.76%.

Compared with `NC(=O)N1CC[C@@H]2O[C@H](COCC(=O)N3CCCC3)CC[C@@H]21`, `O=C(C[C@@H]1COC[C@H]2CN(C(=O)c3ccccn3)C[C@@H]12)N1CCCC1` is higher in cytotoxicity at 70.5 h: -0.223% for the first, 1.42% for the second.

Compared with `COCCN1C(=O)C[C@@H]2[C@H]1CCN2C(=O)c1ccc[nH]1`, `O=C1C[C@H]2[C@@H](CCN2C(=O)c2ccc[nH]2)N1CCN1CCCC1` is higher in cytotoxicity at 70.5 h: -5.24% for the first, -2.17% for the second.

Compared with `Cc1ncsc1CN1C[C@H](C(=O)NC2CCCC2)[C@@H]2CCO[C@@H]2C1`, `COCCNC(=O)[C@H]1CN(Cc2cccs2)C[C@H]2OCC[C@@H]12` is higher in cytotoxicity at 70.5 h: -1.79% for the first, 25.4% for the second.

First: Cc1csc(CN2CC[C@H]3C[C@@H](c4nnc(C)[nH]4)O[C@@H]3C2)n1
Second: Cc1cccc(CN2C[C@H](OCc3csc(C)n3)[C@H]3COC[C@H]32)n1
The cytotoxicity at 70.5 h of the first is higher: 0.739% for the first, -3.75% for the second.

Going from `c1cc(N2CCC3(COCc4cnc(NCC5CC5)nc43)C2)ncn1` (stereo not drawn) to `c1ccc(CN2CCC3(COCc4cnc(NCC5CC5)nc43)C2)cc1` (stereo not drawn), the cytotoxicity at 70.5 h falls from 32.2% to -3.62%.

First: COC[C@@]12CCO[C@@H]1CCN(C(=O)c1ccc(F)c(F)c1)C2
Second: COC[C@@]12CCO[C@@H]1CCN(C(=O)Cc1cccc(F)c1)C2
The cytotoxicity at 70.5 h of the first is lower: 0.0264% for the first, 2.86% for the second.

First: O=C(c1ccco1)N1CCC[C@]2(C[C@H](Oc3ncccc3F)CO2)C1
Second: O=C(c1cccnc1)N1CCC[C@]2(C[C@H](Oc3ncccc3F)CO2)C1
The cytotoxicity at 70.5 h of the first is lower: -1.08% for the first, 0.397% for the second.

Compared with `Cc1nnc(N2CCCC3(CN(Cc4nccn4C)CCO3)C2)o1` (stereo not drawn), `Cc1nnc(N2CCCC3(CN(Cc4cnn(C)c4)CCO3)C2)o1` (stereo not drawn) is lower in cytotoxicity at 70.5 h: -0.85% for the first, -5.09% for the second.

First: CCN1CC2(CC1=O)CN(C(=O)c1ccco1)CCN(C(=O)C(C)C)C2 (stereo not drawn)
Second: Cn1cc(N2CCC3(CCN(C(=O)c4cccn4C)C3)C2=O)cn1 (stereo not drawn)
The cytotoxicity at 70.5 h of the first is higher: 0.454% for the first, -6.34% for the second.

Compared with `c1cc(-c2ccc3c(c2)CCC32CCN(c3nncs3)CC2)co1`, `O=C1COC2(CCN(Cc3ccoc3)CC2)CN1c1ccccc1` is higher in cytotoxicity at 70.5 h: -9.51% for the first, 5.1% for the second.

Going from `Cc1nn(C)cc1Cn1cc(Cl)c(N)n1` to `Cc1nn(C)c2nc(C3CC3)c(Cl)c(C(=O)O)c12`, the cytotoxicity at 70.5 h rises from -1.77% to 0.618%.

First: Cc1cc(OCc2ccc(C(=O)O)s2)ccc1Cl
Second: O=C(O)c1ccc(COc2cccc(Cl)c2)s1
The cytotoxicity at 70.5 h of the first is higher: -0.232% for the first, -5.91% for the second.

Compared with `CCn1nc(C)c(CN2CCNCC2)c1C`, `CCn1ncc(-c2cc(C(F)(F)F)nc(N3CCC(N)CC3)n2)c1C` is higher in cytotoxicity at 70.5 h: -5.76% for the first, 8.37% for the second.

Going from `Cc1noc2nc(C3CC3)c(Cl)c(C(=O)O)c12` to `Cc1ccc(Cn2nc(C)c3c(C(=O)O)c(Cl)c(C4CC4)nc32)cc1`, the cytotoxicity at 70.5 h rises from -7.07% to -4.45%.

First: COC(=O)Cn1c(=O)cc(C(F)F)c2c(C)nn(CC(F)F)c21
Second: Cc1nn(CC(F)F)c2c1c(C(F)F)cc(=O)n2CC(=O)O
The cytotoxicity at 70.5 h of the first is lower: -8.33% for the first, 23.6% for the second.

First: Cc1nc(COC[C@@H]2CC[C@H]3NCC[C@H]3O2)cs1
Second: Cc1nc(CO[C@H]2CN(Cc3cccs3)[C@@H]3COC[C@H]23)cs1
The cytotoxicity at 70.5 h of the first is higher: 38.8% for the first, -3.05% for the second.

Compared with `O=C(NCc1ccco1)[C@@H]1COC[C@H]2CN(c3ncc(F)cn3)C[C@H]21`, `CN(Cc1ccco1)[C@@H]1CN(C(=O)c2cnccn2)C[C@@H]2CCCO[C@@H]21` is higher in cytotoxicity at 70.5 h: -7.6% for the first, -2.85% for the second.

Going from `Cc1cnc(N2C[C@@H]3[C@@H](C2)OCC(=O)N3CC(C)C)nc1` to `Cc1cccc(CN2C[C@@H]3OCCN(c4ccnc(N(C)C)n4)[C@@H]3C2)c1`, the cytotoxicity at 70.5 h rises from 2.16% to 10%.

First: Cc1cccc(S(=O)(=O)N2CC[C@H]3[C@H]2CCN3c2ncccn2)c1
Second: O=C(c1cccc(O)c1)N1CCC2(CCN2c2ncccn2)C1 (stereo not drawn)
The cytotoxicity at 70.5 h of the first is lower: -6.57% for the first, 2.82% for the second.

Going from `Cc1nnc([C@]23COC[C@H]2CN(Cc2cnn(C)c2)C3)o1` to `CN1CC(=O)N(c2cccc(F)c2)CC12CCN(Cc1cnn(C)c1)C2` (stereo not drawn), the cytotoxicity at 70.5 h rises from -4.29% to 4.08%.

Compared with `Cc1nc(CN2C(=O)COC3(CCN(Cc4ccsc4)CC3)C2C)cs1` (stereo not drawn), `O=C1COC2(CCN(Cc3cccs3)CC2)CN1c1ccsc1` is higher in cytotoxicity at 70.5 h: -1.09% for the first, 1.63% for the second.

Compared with `Cn1cccc1CN1CCC2(CC1)CN(c1ccccc1)C(=O)CO2`, `O=C1COC2(CCN(Cc3cccs3)CC2)CN1c1cccnc1` is higher in cytotoxicity at 70.5 h: 2.21% for the first, 5.94% for the second.

Compared with `Cn1cc(CN2CCC3(CC2)CCN(C(=O)c2cscn2)C3)cn1`, `O=C(c1cccnc1)N1CCC2(CC1)COCCN(c1ncccn1)C2` is lower in cytotoxicity at 70.5 h: -3.37% for the first, -9.03% for the second.

Compared with `O=C(c1ccncn1)N1CCC[C@]2(C[C@H](Oc3ncccc3F)CO2)C1`, `O=C(c1ncccn1)N1CCC[C@]2(C[C@@H](Oc3ncccc3F)CO2)C1` is lower in cytotoxicity at 70.5 h: 23.2% for the first, 21.8% for the second.

Compared with `O=C(Cc1ccsc1)N1C[C@@H]2OCCN(CC3CCCO3)[C@@H]2C1` (stereo partly drawn), `O=C(Cc1ccccc1)N1C[C@@H]2OCCN(CC3CCCO3)[C@@H]2C1` (stereo partly drawn) is lower in cytotoxicity at 70.5 h: 7.05% for the first, -6.14% for the second.

Compared with `COCC(=O)N1C[C@@H]2CCCO[C@@H]2[C@H](N(C)Cc2ccco2)C1`, `COCCN1C[C@@H]2[C@@H](OC)CCN(Cc3ccco3)[C@@H]2C1` is lower in cytotoxicity at 70.5 h: -3.25% for the first, -3.76% for the second.

First: O=C(N[C@@H]1CN[C@@H]2CCCO[C@@H]21)c1cscn1
Second: CN(C)S(=O)(=O)N1CCO[C@H]2[C@H](Oc3cccnc3)CC[C@@H]21
The cytotoxicity at 70.5 h of the first is higher: -3.45% for the first, -3.81% for the second.

Going from `CN(C)CCN1CCO[C@H]2CN(C(=O)N(C)C)C[C@H]21` to `Cc1ccc(CN2Cc3c(C(=O)N4CCN(C)CC4)nn(C)c3C2)s1`, the cytotoxicity at 70.5 h falls from 24.8% to -3.87%.

First: Cc1cccc(CN2C[C@H]3C[C@H](C(=O)NCc4cccnc4)[C@@H](C2)O3)c1
Second: c1cc(CN2CCc3ncc(CN4CCCCC4)n3CC2)cs1
The cytotoxicity at 70.5 h of the first is higher: 25% for the first, 19.1% for the second.

For `Cc1ccc(N2CCC3(CC2)COCCN(c2nccs2)C3)nn1`, the cytotoxicity at 70.5 h was 2.35%.
